According to patent US20260042764A1, “COMPOSITIONS AND METHODS FOR INHIBITION OF KRAS” (TheRas, Inc., priority 2022, published 2026):

Key:
[1] = target: T1, Avi-KRAS G12D (2-169) GTP/RAF1 RBD-3xFLAG (51-131) (Homo sapiens, UniProt P01116, G12D); assay: Raf1-KRAS G12D-GTP disruption HTRF assay (Biological Example 3); assay type: binding; conditions: KRAS G12D, GTP-loaded
T1 construct: Avi-KRAS G12D (2-169)
In short: (§1)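 An HTRF assay measured disruption of 50 nM Avi-KRAS (2-169)-GTP (WT, G12C, G12D or G12V) bound to RAF1 RBD-3xFLAG (51-131). Buffer was Tris pH 7.5 with 5 mM MgCl2 and 10% DMSO. Compounds (30–0.005 μM, 3-fold, 10 points) were incubated 1 h at room temperature, and activity is given as % of DMSO.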

[2] = test system: SW620 cells (KRAS G12V); assay: Cell-based pERK HTRF assay in SW620 cell (Biological Example 4)
In short: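 In SW620 cells grown in RPMI with 10% FBS, a 4 h compound treatment (0.25% DMSO, 9-point curve from 1 μM) preceded lysis. Phospho-ERK levels were then read by time-resolved FRET at 615 nm emission.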

[3] = target: T2, Avi-KRAS G12R (1-169) GppNHp/RAF1 RBD-3xFLAG (52-151) (Homo sapiens, UniProt P01116, G12R); assay: Raf1-KRAS G12R-GppNHP disruption HTRF assay (Biological Example 1); assay type: binding
T2 construct: Avi-KRAS G12R (1-169)
T2 sequence (P01116 1-169 isoform P01116-2 G12R): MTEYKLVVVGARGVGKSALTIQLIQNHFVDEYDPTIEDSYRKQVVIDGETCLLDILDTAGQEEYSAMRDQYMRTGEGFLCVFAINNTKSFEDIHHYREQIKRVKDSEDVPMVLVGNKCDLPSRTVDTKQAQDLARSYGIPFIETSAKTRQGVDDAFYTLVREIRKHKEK
In short: (§2)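 HTRF PPI disruption; buffer 50 mM Tris pH 7.5, 100 mM NaCl, 5 mM MgCl2, 0.1% BSA, 0.01% Tween, 10% DMSO. Protein mix 1 h RT shaking, reagent mix 1 h RT shaking. Data as % activity vs DMSO (100%).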

[4] = target: T3, Avi-KRAS WT (1-169) GppNHp/RAF1 RBD-3xFLAG (52-151) (Homo sapiens, UniProt P01116); assay: Raf1-KRAS WT-GppNHP disruption HTRF assay (Biological Example 1); assay type: binding
T3 construct: Avi-KRAS WT (1-169)
T3 sequence (P01116 1-169 isoform P01116-2): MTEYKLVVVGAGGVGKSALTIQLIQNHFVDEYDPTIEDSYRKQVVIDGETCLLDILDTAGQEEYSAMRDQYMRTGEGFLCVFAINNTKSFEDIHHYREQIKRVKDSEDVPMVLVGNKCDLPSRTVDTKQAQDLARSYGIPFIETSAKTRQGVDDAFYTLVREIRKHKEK
In short: as §2

[5] = target: T4, Avi-KRAS G12V (2-169) GTP/RAF1 RBD-3xFLAG (51-131) (Homo sapiens, UniProt P01116, G12V); assay: Raf1-KRAS G12V-GTP disruption HTRF assay (Biological Example 3); assay type: binding; conditions: KRAS G12V, GTP-loaded
T4 construct: Avi-KRAS G12V (2-169)
T4 sequence (P01116 2-169 isoform P01116-2 G12V): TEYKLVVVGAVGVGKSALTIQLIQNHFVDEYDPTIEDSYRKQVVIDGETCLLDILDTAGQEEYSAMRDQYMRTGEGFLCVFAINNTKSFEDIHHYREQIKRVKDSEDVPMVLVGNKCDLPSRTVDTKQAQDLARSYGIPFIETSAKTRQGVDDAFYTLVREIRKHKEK
In short: as §1

[6] = Homo sapiens, SW-620, SW620 (KRAS G12V) cells
[7] = Homo sapiens, SW-620, SW620 (KRAS G12V) cells, pERK HTRF, class symbols
[8] = KRAS G12R, GppNHp-loaded, class symbols
[9] = KRAS WT, GppNHp-loaded, class symbols
[10] = Homo sapiens, SW-620, SW620 (KRAS G12V) cells, pERK HTRF
[11] = KRAS G12R, GppNHp-loaded, Table 11
[12] = KRAS WT, GppNHp-loaded, Table 11

T1 sequence (P01116 2-169 isoform P01116-2 G12D): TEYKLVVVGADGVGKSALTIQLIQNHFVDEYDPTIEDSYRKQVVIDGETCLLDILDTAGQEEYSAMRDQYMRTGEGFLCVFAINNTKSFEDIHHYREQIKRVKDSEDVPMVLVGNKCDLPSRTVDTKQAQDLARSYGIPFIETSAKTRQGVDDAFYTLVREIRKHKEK

| Structure (SMILES) | IC50 [1] [nM] | IC50 [2, 6] [nM] | IC50 [2, 7] [nM] | IC50 [3, 8] [nM] | IC50 [4, 9] [nM] | IC50 [5] [nM] | IC50 ([2]; SW620 (KRAS G12V) cells, pERK HTRF) [nM] | IC50 ([3]; KRAS G12R-GppNHp/RAF1 RBD HTRF) [nM] | IC50 ([4]; KRAS WT-GppNHp/RAF1 RBD HTRF) [nM] | IC50 [2, 10] [nM] | IC50 [3, 11] [nM] | IC50 [4, 12] [nM] |
| --- | --- | --- | --- | --- | --- | --- | --- | --- | --- | --- | --- | --- |
| CCC(=O)N1CC[C@@H](N(C)c2nc(OC[C@@]34CCCN3C[C@H](F)C4)nc3c(F)c(-c4ccc(F)c5sc(N)c(C#N)c45)c(C(F)(F)F)cc23)[C@H]1C (atropisomer, axis not shown) [Compound 335] | 100 to 1000 | < 100 | – | – | – | 100 to 1000 | < 100 | < 100 | < 100 | – | – | – |
| CCN(c1nc(OC[C@@]23CCCN2C[C@H](F)C3)nc2c(F)c(-c3ccc(F)c4sc(N)c(C#N)c34)c(C(F)(F)F)cc12)[C@H]1CCN(C(C)=O)C1 [Compound 262] | ≤ 100 | < 100 | – | – | – | 100 to 1000 | – | – | – | < 100 | < 100 | < 100 |
| CCN(c1nc(OC[C@@]23CCCN2C[C@H](F)C3)nc2c(F)c(-c3ccc(F)c4sc(N)c(C#N)c34)c(C(F)(F)F)cc12)[C@H]1C[C@H]2CCC(=O)N2C1 (atropisomer, axis not shown; (aR)) [Compound 573, 2-amino-4-((S)-4-(ethyl((2S,7aR)-5-oxohexahydro-1H-pyrrolizin-2-yl)amino)-8-fluoro-2-(((2R,7aS)-2-fluorotetrahydro-1H-pyrrolizin-7a(5H)-yl)methoxy)-6-(trifluoromethyl)quinazolin-7-yl)-7-fluorobenzo[b]thiophene-3-carbonitrile] | ≤ 100 | < 100 | < 100 | < 100 | < 100 | ≤ 100 | – | – | – | – | – | – |
| CCN(c1nc(OC[C@@]23CCCN2C[C@H](F)C3)nc2c(F)c(-c3ccc(F)c4sc(N)c(C#N)c34)c(C(F)(F)F)cc12)[C@H]1CCN(C(=O)OC)C1 [Compound 394] | 100 to 1000 | < 100 | – | – | – | 100 to 1000 | – | < 100 | < 100 | < 100 | – | – |
| N#Cc1c(N)sc2c(F)ccc(-c3c(C(F)(F)F)cc4c(N5CCCC[C@@H](O)C5)nc(OC[C@@]56CCCN5C[C@H](F)C6)nc4c3F)c12 [Compound 286] | 100 to 1000 | < 100 | – | – | – | 100 to 1000 | – | < 100 | < 100 | < 100 | – | – |
| CC(=O)N1C[C@H](N(C)c2nc(OC[C@@]34CCCN3C[C@H](F)C4)nc3c(F)c(-c4ccc(F)c5sc(N)c(C#N)c45)c(C(F)(F)F)cc23)C[C@@H]1C [Compound 298] | 1000 to 10000 | < 100 | – | – | – | 100 to 1000 | – | 100 to 1000 | 100 to 1000 | < 100 | – | – |
| CCN(c1nc(OC[C@@]23CCCN2C[C@H](F)C3)nc2c(F)c(-c3ccc(F)c4sc(N)c(C#N)c34)c(C(F)(F)F)cc12)[C@H]1CCN(C(=O)C2CC2)C1 [Compound 331] | 100 to 1000 | < 100 | – | – | – | 100 to 1000 | – | < 100 | 100 to 1000 | < 100 | – | – |
| CCN(c1nc(OC[C@@]23CCCN2C[C@H](F)C3)nc2c(F)c(-c3ccc(F)c4sc(N)c(C#N)c34)c(C(F)(F)F)cc12)[C@H]1CCN(C(=O)[C@H]2CCO2)C1 (atropisomer, axis not shown) [Compound 577] | ≤ 100 | < 100 | < 100 | < 100 | < 100 | ≤ 100 | – | – | – | – | – | – |
| N#Cc1c(N)sc2c(F)ccc(-c3c(C(F)(F)F)cc4c(N5CCNS(=O)(=O)CC5)nc(OC[C@@]56CCCN5C[C@H](F)C6)nc4c3F)c12 [Compound 245] | 100 to 1000 | < 100 | – | – | – | 100 to 1000 | – | – | – | < 100 | < 100 | < 100 |

Other lines, results leading:

| IC50 [1] [nM] | IC50 [2, 6] [nM] | IC50 [2, 7] [nM] | IC50 [3, 8] [nM] | IC50 [4, 9] [nM] | IC50 [5] [nM] | IC50 ([2]; SW620 (KRAS G12V) cells, pERK HTRF) [nM] | IC50 ([3]; KRAS G12R-GppNHp/RAF1 RBD HTRF) [nM] | IC50 ([4]; KRAS WT-GppNHp/RAF1 RBD HTRF) [nM] | IC50 [2, 10] [nM] | IC50 [3, 11] [nM] | IC50 [4, 12] [nM] | Structure (SMILES) |
| --- | --- | --- | --- | --- | --- | --- | --- | --- | --- | --- | --- | --- |
| ≤ 100 | < 100 | < 100 | < 100 | < 100 | ≤ 100 | – | – | – | – | – | – | CCN(c1nc(OC[C@@]23CCCN2C[C@H](F)C3)nc2c(F)c(-c3ccc(F)c4sc(N)c(C#N)c34)c(C(F)(F)F)cc12)[C@H]1CCN(C(=O)O[C@@H]2CCOC2)C1 (atropisomer, axis not shown) [Compound 683] |
| 1000 to 10000 | 100 to 1000 | 100 to 1000 | 1000 to 10000 | 1000 to 10000 | > 10000 | – | – | – | – | – | – | N#Cc1c(N)sc2c(F)ccc(-c3c(C(F)(F)F)cc4c(N(C5CC5)[C@H]5CCS(=O)(=O)C5)nc(OC[C@@]56CCCN5C[C@H](F)C6)nc4c3F)c12 [Compound 702] |
| 100 to 1000 | < 100 | < 100 | 100 to 1000 | 100 to 1000 | 100 to 1000 | – | – | – | – | – | – | CC(=O)N1CC[C@H](N(c2nc(OC[C@@]34CCCN3C[C@H](F)C4)nc3c(F)c(-c4ccc(F)c5sc(N)c(C#N)c45)c(C(F)(F)F)cc23)C2CC2)C1 (atropisomer, axis not shown) [Compound 608] |
| 100 to 1000 | < 100 | < 100 | < 100 | < 100 | 100 to 1000 | – | – | – | – | – | – | CCN(c1nc(OC[C@@]23CCCN2C[C@H](F)C3)nc2c(F)c(-c3ccc(F)c4sc(N)c(C#N)c34)c(C(F)(F)F)cc12)[C@H]1C[C@@H](C)N(C(=O)C2COC2)C1 (atropisomer, axis not shown) [Compound 586] |
| ≤ 100 | 100 to 1000 | < 100 | < 100 | < 100 | ≤ 100 | – | – | – | – | – | – | C/C=C/C(=O)N1CC[C@H](N(CC)c2nc(OC[C@@]34CCCN3C[C@H](F)C4)nc3c(F)c(-c4ccc(F)c5sc(N)c(C#N)c45)c(C(F)(F)F)cc23)C1 (atropisomer, axis not shown) [Compound 674] |
| ≤ 100 | < 100 | < 100 | < 100 | < 100 | 100 to 1000 | – | – | – | – | – | – | CCN(c1nc(OC[C@@]23CCCN2C[C@H](F)C3)nc2c(F)c(-c3ccc(F)c4sc(N)c(C#N)c34)c(C(F)(F)F)cc12)[C@H]1CCN(C(=O)C2CC2)[C@@H]1C (atropisomer, axis not shown) [Compound 579] |
| ≤ 100 | < 100 | < 100 | < 100 | < 100 | 100 to 1000 | – | – | – | – | – | – | CC(=O)N1CC[C@H](N(CCF)c2nc(OC[C@@]34CCCN3C[C@H](F)C4)nc3c(F)c(-c4ccc(F)c5sc(N)c(C#N)c45)c(C(F)(F)F)cc23)C1 (atropisomer, axis not shown) [Compound 622] |
| ≤ 100 | < 100 | < 100 | < 100 | < 100 | 100 to 1000 | – | – | – | – | – | – | C=C(C)C(=O)N1CC[C@H](N(CC)c2nc(OC[C@@]34CCCN3C[C@H](F)C4)nc3c(F)c(-c4ccc(F)c5sc(N)c(C#N)c45)c(C(F)(F)F)cc23)C1 (atropisomer, axis not shown) [Compound 673] |
| ≤ 100 | < 100 | < 100 | < 100 | < 100 | ≤ 100 | – | – | – | – | – | – | CCN(c1nc(OC[C@@]23CCCN2C[C@H](F)C3)nc2c(F)c(-c3ccc(F)c4sc(N)c(C#N)c34)c(C(F)(F)F)cc12)[C@H]1CCN(C(=O)C2CC2(F)F)C1 (stereo partly drawn) [Compound 581] |
| ≤ 100 | < 100 | < 100 | < 100 | < 100 | ≤ 100 | – | – | – | – | – | – | CCN(c1nc(OC[C@@]23CCCN2C[C@H](F)C3)nc2c(F)c(-c3ccc(F)c4sc(N)c(C#N)c34)c(C(F)(F)F)cc12)[C@H]1CCN(C(=O)[C@@H]2CCO2)C1 (atropisomer, axis not shown) [Compound 603] |
